In ChEMBL document CHEMBL4715709, “Synthesis and evaluation of anticonvulsant properties of new N-Mannich bases derived from 3-(1-phenylethyl)- and 3-benzyl-pyrrolidine-2,5-dione” (Bioorg Med Chem Lett, 2016):
Active and inactive are the calls of the source. The rule behind the calls is not given here.

Legend:
[1] = Neurotoxicity activity in ip dosed mouse assessed as induction of motor impairment by rotarod test; type: toxicity, organism-based; settings: in vivo
[2] = tested on: Mus musculus; experiment: Anticonvulsant activity in ip dosed mouse assessed as protection against ScPTZ-induced epilepsy measured after 4 hrs by subcutaneous pentylenetetrazole test; type: functional
[3] = tested on: Mus musculus; experiment: Anticonvulsant activity in mouse assessed as protection against tonic-clonic seizures at 300 mg/kg, ip measured after 0.5 hrs by maximal electroshock seizure test; type: functional, organism-based
[4] = Neurotoxicity in mouse assessed as induction of motor impairment at 300 mg/kg, ip measured after 4 hrs by rotarod test; type: toxicity, organism-based; settings: in vivo
[5] = Protection index, ratio of TD50 for neurotoxicity in ip dosed mouse to ED50 for anticonvulsant activity in ip dosed mouse measured after 4 hrs by subcutaneous pentylenetetrazole test; type: toxicity, organism-based; settings: in vivo, read-out: PI
[6] = tested on: Mus musculus; experiment: Anticonvulsant activity in mouse assessed as protection against tonic-clonic seizures at 300 mg/kg, ip measured after 4 hrs by maximal electroshock seizure test; type: functional, organism-based
[7] = tested on: Mus musculus; experiment: Anticonvulsant activity in mouse assessed as protection against ScPTZ-induced epilepsy at 300 mg/kg, ip measured after 4 hrs by subcutaneous pentylenetetrazole test; type: functional, organism-based
[8] = Neurotoxicity in ip dosed mouse assessed as minimum dose required for induction of motor impairment measured after 0.5 hrs by rotarod test; type: toxicity, organism-based; settings: in vivo
[9] = tested on: Mus musculus; experiment: Anticonvulsant activity in ip dosed mouse assessed as minimum dose required for protection against ScPTZ-induced epilepsy measured after 0.5 hrs by subcutaneous pentylenetetrazole test; type: functional
[10] = tested on: Mus musculus; experiment: Anti-convulsant activity in mouse assessed as protection of animals against psychomotor seizures at 100 mg/kg, ip measured after 0.5 hrs by 6 Hz limbic seizure test; type: functional
[11] = tested on: Mus musculus; experiment: Anticonvulsant activity in ip dosed mouse assessed as minimum dose required for protection against tonic-clonic seizures measured after 0.5 hrs by maximal electroshock seizure test; type: functional
[12] = tested on: Mus musculus; experiment: Anti-convulsant activity in ip dosed mouse assessed as protection against psychomotor seizures measured after 0.5 hrs by 6 Hz limbic seizure test; type: functional
[13] = tested on: Mus musculus; experiment: Anticonvulsant activity in ip dosed mouse assessed as minimum dose required for protection against ScPTZ-induced epilepsy measured after 4 hrs by subcutaneous pentylenetetrazole test; type: functional
[14] = Protection index, ratio of TD50 for neurotoxicity in ip dosed mouse to ED50 for anticonvulsant activity in ip dosed mouse measured after 0.5 hrs by subcutaneous pentylenetetrazole test; type: toxicity, organism-based; settings: in vivo, read-out: PI
[15] = tested on: Mus musculus; experiment: Anti-convulsant activity in mouse assessed as protection of animals against psychomotor seizures at 100 mg/kg, ip measured after 4 hrs by 6 Hz limbic seizure test; type: functional
[16] = Protection index, ratio of TD50 for neurotoxicity in ip dosed mouse to ED50 for anticonvulsant activity in ip dosed mouse measured after 0.5 hrs by 6 Hz limbic seizure test; type: toxicity, organism-based; settings: in vivo, read-out: PI
[17] = tested on: Mus musculus; experiment: Anticonvulsant activity in ip dosed mouse assessed as protection against ScPTZ-induced epilepsy measured after 0.5 hrs by subcutaneous pentylenetetrazole test; type: functional
[18] = tested on: Mus musculus; experiment: Anticonvulsant activity in ip dosed mouse assessed as minimum dose required for protection against tonic-clonic seizures measured after 4 hrs by maximal electroshock seizure test; type: functional
[19] = Neurotoxicity in mouse assessed as induction of motor impairment at 300 mg/kg, ip measured after 0.5 hrs by rotarod test; type: toxicity, organism-based; settings: in vivo
[20] = tested on: Mus musculus; experiment: Anticonvulsant activity in mouse assessed as protection against ScPTZ-induced epilepsy at 300 mg/kg, ip measured after 0.5 hrs by subcutaneous pentylenetetrazole test; type: functional, organism-based
[21] = Neurotoxicity in ip dosed mouse assessed as minimum dose required for induction of motor impairment measured after 4 hrs by rotarod test; type: toxicity, organism-based; settings: in vivo
[22] = species: Homo sapiens; experiment: Inhibition of Sodium channel site 2 (unknown origin) at 100 uM
[23] = species: Homo sapiens; experiment: Inhibition of L-type calcium channel (unknown origin) at 100 uM
[24] = species: Homo sapiens; experiment: Inhibition of GABAA receptor (unknown origin) at 100 uM
[25] = species: Homo sapiens; experiment: Inhibition of NMDA receptor (unknown origin) at 100 uM
[26] = tested on: Mus musculus; experiment: Anticonvulsant activity in ip dosed mouse assessed as protection against ScPTZ-induced epilepsy measured after 0.25 hrs by subcutaneous pentylenetetrazole test; type: functional
[27] = tested on: Mus musculus; experiment: Anti-convulsant activity in ip dosed mouse assessed as protection against psychomotor seizures measured after 0.25 hrs by 6 Hz limbic seizure test; type: functional

| SMILES | TD50 [1] [mg/kg] | Activity [3] | Activity [4] | Activity [6] | Activity [7] | MTD50 [8] [mg/kg] | MED=>50 [9] [mg/kg] | Activity [10] [%] | minimum effective dose [11] [mg/kg] | ED50 [12] [mg/kg] | MED=>50 [13] [mg/kg] | Activity [15] [%] | selectivity ratio at 0.5 h [16] | MED=>50 [18] [mg/kg] | Activity [20] | also measured |
| --- | --- | --- | --- | --- | --- | --- | --- | --- | --- | --- | --- | --- | --- | --- | --- | --- |
| COc1ccccc1N1CCN(CN2C(=O)CC(C(C)c3ccccc3)C2=O)CC1 (stereo unspecified) | 128 | inactive | Non-Toxic | inactive | inactive | 300 | 30 |  |  |  |  |  |  |  |  | ED50 [2]: 48 mg/kg; selectivity ratio at 4 h [5]: 2.66 |
| O=C1CC(Cc2ccccc2)C(=O)N1CN1CCOCC1 (racemic) | 179 |  | Non-Toxic |  |  | 300 | 100 | 100 | 300 | 53 | 100 | 0 | 3.37 | 300 |  | selectivity ratio at 0.5 h [14]: 2.05; ED50 [17]: 87 mg/kg |
| CC(c1ccccc1)C1CC(=O)N(CN2CCC(Cc3ccccc3)CC2)C1=O (racemic) |  | inactive | Non-Toxic |  | inactive |  |  |  |  |  |  |  |  | 300 | inactive | Activity [19]: Non-Toxic |
| CC(c1ccccc1)C1CC(=O)N(CN2CCN(c3cccc(C(F)(F)F)c3)CC2)C1=O (racemic) |  | inactive | Non-Toxic |  | inactive |  |  |  |  |  |  |  |  | 300 | inactive | Activity [19]: Non-Toxic |
| O=C1CC(Cc2ccccc2)C(=O)N1CN1CCN(c2ccc(F)cc2)CC1 (racemic) |  |  |  |  | inactive | 300 |  |  | 300 |  |  |  |  | 300 | inactive | MTD50 [21]: 300 mg/kg |
| CC(c1ccccc1)C1CC(=O)N(CN2CCN(C)CC2)C1=O.Cl (racemic) | 229 |  | Non-Toxic | inactive |  | 300 | 30 | 100 | 300 | 36 | 300 | 0 | 6.36 |  |  | inhibition [22]: < 50%; selectivity ratio at 0.5 h [14]: 5.87; inhibition [23]: < 50%; inhibition [24]: < 50%; ED50 [17]: 39 mg/kg; inhibition [25]: < 50% |
| Cl.O=C1CC(Cc2ccccc2)C(=O)N1CN1CCN(CCO)CC1 (racemic) | 344 |  | Non-Toxic | inactive |  | 300 |  | 100 | 300 | 71 | 300 | 0 | 4.85 |  | inactive |  |
| O=C1CC(Cc2ccccc2)C(=O)N1CN1CCN(c2ccc(Cl)cc2)CC1 (racemic) |  | inactive |  | inactive | inactive |  |  |  |  |  |  |  |  |  | inactive | Activity [19]: Non-Toxic; MTD50 [21]: 300 mg/kg |
| O=C1CC(Cc2ccccc2)C(=O)N1CN1CCN(c2cccc(C(F)(F)F)c2)CC1 (racemic) |  |  | Non-Toxic |  | inactive | 300 |  |  | 300 |  |  |  |  | 300 | inactive |  |
| O=C1CC(Cc2ccccc2)C(=O)N1CN1CCN(c2ncccn2)CC1 (racemic) |  | inactive |  | inactive |  | 300 |  |  |  |  | 100 |  |  |  | inactive | MTD50 [21]: 300 mg/kg |
| CN1CCN(CN2C(=O)CC(Cc3ccccc3)C2=O)CC1.Cl (racemic) | 324 |  | Non-Toxic | inactive |  |  | 100 | 66 | 300 | 65 | 300 | 0 | 5 |  |  | selectivity ratio at 0.5 h [14]: 3.41; Activity [19]: Non-Toxic; ED50 [17]: 95 mg/kg |
| CC(c1ccccc1)C1CC(=O)N(CN2CCN(CCO)CC2)C1=O.Cl (racemic) | 290 |  | Non-Toxic | inactive |  | 300 | 300 | 100 | 300 | 30 | 300 | 0 | 9.66 |  |  |  |
| CC(c1ccccc1)C1CC(=O)N(CN2CCOCC2)C1=O (racemic) |  |  | Non-Toxic |  | inactive | 300 |  |  | 300 |  |  |  |  | 300 | inactive |  |
| CC(c1ccccc1)C1CC(=O)N(CN2CCN(C3CCCCC3)CC2)C1=O (racemic) | 196 | inactive | Non-Toxic | inactive | inactive | 300 | 100 | 100 |  | 75 |  | 0 | 2.61 |  |  | selectivity ratio at 0.5 h [14]: 1.94; ED50 [17]: 101 mg/kg |
| O=C1CC(Cc2ccccc2)C(=O)N1CN1CCN(c2ccc(Cl)c(Cl)c2)CC1 (racemic) | 246 | inactive |  |  |  |  | 300 | 0 |  |  | 100 | 0 |  | 300 |  | ED50 [2]: 106 mg/kg; Activity [19]: Non-Toxic; MTD50 [21]: 300 mg/kg; selectivity ratio at 4 h [5]: 2.32 |
| CCC1(C)CC(=O)NC1=O (stereo unspecified) [ETHOSUXIMIDE] |  |  |  |  |  |  |  |  |  |  |  |  |  |  |  | ED50 [26]: 140 mg/kg; ED50 [27]: > 200 mg/kg |
| COC[C@@H](NC(C)=O)C(=O)NCc1ccccc1 [LACOSAMIDE] |  |  |  |  |  |  |  |  |  | 6 |  |  | 5.66 |  |  |  |
| CCCC(CCC)C(=O)O [VALPROIC ACID] |  |  |  |  |  |  |  |  |  | 131 |  |  |  |  |  | ED50 [17]: 239 mg/kg |
